Laboratory results as given in ChEMBL document CHEMBL4706697, “Structure-based designing and synthesis of 2-phenylchromone derivatives as potent tyrosinase inhibitors: In vitro and in silico studies” (Bioorg Med Chem, 2021).

Biological target: T1, Mushroom tyrosinase (Agaricus bisporus, UniProt O42713+Q00024+C7FF04+C7FF05)
Experiment: Inhibition of mushroom tyrosinase using L-Dopa as substrate preincubated for 10 mins followed by substrate addition and measured after 20 mins

SMILES | IC50
O=c1c(O)c(-c2ccc(O)cc2)oc2ccccc12 | 0.23 µM
COc1ccc(-c2oc3cc(Br)cc(Br)c3c(=O)c2O)cc1OC | 0.093 µg/mL
CN(C)c1ccc(-c2cc(=O)c3c(Br)cc(Br)cc3o2)cc1 | 0.57 µg/mL
O=c1c(O)c(-c2ccc(Cl)cc2)oc2cc(Br)cc(Br)c12 | 0.71 µg/mL
O=C(O)c1ccc(-c2cc(=O)c3c(Br)cc(Br)cc3o2)cc1 | 9.7 µg/mL
O=c1cc(-c2cccc3ccccc23)oc2cc(Br)cc(Br)c12 | 3.41 µg/mL
Cc1ccc(S(=O)(=O)n2cc(-c3oc4cc(Br)cc(Br)c4c(=O)c3O)c3ccccc32)cc1 | 8.175 µg/mL
O=C(O)c1ccc(-c2oc3cc(Br)cc(Br)c3c(=O)c2O)cc1 | 4.26 µg/mL
O=c1cc(-c2ccco2)oc2cc(Br)cc(Br)c12 | 2.07 µg/mL
O=c1c(O)c(-c2ccco2)oc2cc(Br)cc(Br)c12 | 2.5 µg/mL
Cc1ccc(-c2cc(=O)c3c(Br)cc(Br)cc3o2)c(C)c1 | 11.33 µg/mL
O=c1c(O)c(-c2cccc3ccccc23)oc2cc(Br)cc(Br)c12 | 0.564 µg/mL
O=c1cc(-c2ccc(F)cc2)oc2cc(Br)cc(Br)c12 | 20.5 µg/mL
COc1ccc(-c2cc(=O)c3c(Br)cc(Br)cc3o2)cc1OC | 0.49 µg/mL
O=c1cc(-c2c[nH]c3ccccc23)oc2cc(Br)cc(Br)c12 | 0.22 µg/mL
O=c1c(O)c(-c2cccs2)oc2cc(Br)cc(Br)c12 | 3.01 µg/mL
Cc1ccc(S(=O)(=O)n2cc(-c3cc(=O)c4c(Br)cc(Br)cc4o3)c3ccccc32)cc1 | 22.22 µg/mL
O=c1cc(-c2ccc(Cl)cc2)oc2cc(Br)cc(Br)c12 | 4.2 µg/mL
CN(C)c1ccc(-c2oc3cc(Br)cc(Br)c3c(=O)c2O)cc1 | 0.5 µg/mL
Cc1ccc(-c2cc(=O)c3c(Br)cc(Br)cc3o2)cc1 | 7.2 µg/mL
O=c1c(O)c(-c2ccc(F)cc2)oc2cc(Br)cc(Br)c12 | 2.36 µg/mL
Cc1ccc(-c2oc3cc(Br)cc(Br)c3c(=O)c2O)c(C)c1 | 7.57 µg/mL
O=c1cc(-c2cccs2)oc2cc(Br)cc(Br)c12 | 0.68 µg/mL
O=c1cc(-c2ccc([N+](=O)[O-])cc2)oc2cc(Br)cc(Br)c12 | 0.27 µg/mL
O=c1cc(-c2cccc([N+](=O)[O-])c2)oc2cc(Br)cc(Br)c12 | 3.28 µg/mL
O=c1c(O)c(-c2ccc([N+](=O)[O-])cc2)oc2cc(Br)cc(Br)c12 | 0.27 µg/mL
Cc1ccc(-c2oc3cc(Br)cc(Br)c3c(=O)c2O)cc1 | 0.126 µg/mL
O=c1c(O)c(-c2c[nH]c3ccccc23)oc2cc(Br)cc(Br)c12 | 23.58 µg/mL
O=c1c(O)c(-c2cccc([N+](=O)[O-])c2)oc2cc(Br)cc(Br)c12 | 0.15 µg/mL

Biological target: T1, Mushroom tyrosinase
Experiment: Inhibition of mushroom tyrosinase using L-Dopa as substrate […]

SMILES | IC50
O=C(Nc1cccc(Cl)c1)Nc1ccc2c(c1)S(=O)(=O)NC2=O | 5.85 µM
COc1ccc(/C=C2\NC(=S)NC2=O)c(OC)c1 | 1.07 µM
O=C(O)S[C@H]1N=N[C@@H](NC(=S)Nc2cccc(C(F)(F)F)c2)S1 | 6.13 µM
CCN1CCN(CC(=O)Nc2ccc3oc(-c4ccc(C(C)(C)C)cc4)nc3c2)CC1 | 8.14 µM

Biological target: T1, Mushroom tyrosinase
Experiment: Inhibition of mushroom tyrosinase

SMILES | IC50
C=CCc1ccc(OC(=O)COC(=O)/C=C/c2ccc(O)cc2)c(OC)c1 | 3 µM
